# Tested on: EpidermFT™ Skin Model (EFT-400) full thickness skin cultures
# Test: Affymetrix GeneChip HG U133 Plus 2.0 microarray global gene expression, agent-exposed vs untreated skin cultures
# Assay type: cell-based, human
# Settings: 0.5% vs untreated, 24 hr; down
smiles,measurement,value
"OCc1ccccc1O[C@@H]1O[C@H](CO)[C@@H](O)[C@H](O)[C@H]1O [Salicin, 2-(Hydroxymethyl)phenyl β-D-glucospyranoside]",Fold change ABHD12 (228124_at),3.821
same,Fold change ACAD8 (221669_s_at),3.404
same,Fold change ACOX1 (209600_s_at),3.361
same,Fold change ACOX1 (213501_at),3.854
same,Fold change ACOX1 (227962_at),3.737
same,Fold change ADAP2 (222876_s_at),3.579
same,Fold change AGPAT9 (224480_s_at),3.106
same,Fold change AHNAK2 (1558378_a_at),3.138
same,Fold change AKTIP (223894_s_at),3.08
same,Fold change ALDH3A2 (210544_s_at),3.633
same,Fold change ALDH3B2 (204941_s_at),3.429
same,Fold change ALOX15B (206714_at),3.512
same,Fold change ANKFN1 (1553211_at),3.62
same,Fold change ANKRD35 (231118_at),3.392
same,Fold change ANKRD57 (219496_at),3.699
same,Fold change APOBEC3B (206632_s_at),3.0369
same,Fold change AQP3 (39248_at),3.579
same,Fold change ARHGEF5 (204765_at),3.689
same,Fold change ARL4A (205020_s_at),3.913
same,Fold change ARL5A (218150_at),3.293
same,Fold change ARL5A (226617_at),3.1
same,Fold change ASPHD2 (227015_at),3.321
same,Fold change BCL11A (210347_s_at),3.112
same,Fold change BEND5 (219670_at),3.381
same,Fold change BEX2 (224367_at),3.212
same,Fold change BTBD16 (1552566_at),3.232
same,Fold change C1orf106 (219010_at),3.744
same,Fold change C1orf161 (1553333_at),3.474
same,Fold change C2orf54 (220149_at),3.333
same,Fold change C4orf32 (227856_at),3.328
same,Fold change C10orf57 /// C10orf58 (224435_at),3.829
same,Fold change C10orf99 (227735_s_at),3.719
same,Fold change C19orf33 (223631_s_at),3.241
same,Fold change C20orf74 (232500_at),3.366
same,Fold change CA2 (209301_at),3.433
same,Fold change CAMK1D (235626_at),3.726
same,Fold change CARD10 (210026_s_at),3.475
same,Fold change CCNB1 (228729_at),3.349
same,Fold change CD9 (201005_at),3.444
same,Fold change CDH3 (203256_at),3.506
same,Fold change CDKN2B (236313_at),3.737
same,Fold change CDS1 (226187_at),3.08
same,Fold change CGN (223232_s_at),3.873
same,Fold change CHAC2 (235117_at),3.55
same,Fold change CHD7 (218829_s_at),3.089
same,Fold change CLDN4 (201428_at),3.454
same,Fold change CLTB (205172_x_at),3.663
same,Fold change CLTB (211043_s_at),3.446
same,Fold change COBLL1 (215393_s_at),3.301
same,Fold change COL17A1 (204636_at),3.576
same,Fold change CPEB3 (205773_at),3.876
same,Fold change CTA-221G9.4 /// LOC100131004 (225525_at),3.401
same,Fold change CYP2R1 (227109_at),3.716
same,Fold change CYP27C1 (1568868_at),3.64
same,Fold change D4S234E (209569_x_at),3.313
same,Fold change D4S234E (209570_s_at),3.871
same,Fold change DAAM1 (216060_s_at),3.84
same,Fold change DAAM1 (226666_at),3.519
same,Fold change DAPL1 (229290_at),3.089
same,Fold change DGAT2 (224327_s_at),3.427
same,Fold change DGAT2 (226064_s_at),3.883
same,Fold change DHRS1 (213279_at),3.907
same,Fold change DHRS11 (218756_s_at),3.13
same,Fold change DLX3 (231778_at),3.089
same,Fold change DOCK8 (225502_at),3.608
same,Fold change DUOX1 (219597_s_at),3.516
same,Fold change DUOXA1 (1554648_a_at),3.865
same,Fold change EBP (213787_s_at),3.0355
same,Fold change EFNA5 (214036_at),3.139
same,Fold change EGR1 (201693_s_at),3.681
same,Fold change EGR2 (205249_at),3.497
same,Fold change ELOVL6 (204256_at),3.121
same,Fold change ELOVL6 (210868_s_at),3.441
same,Fold change ENC1 (201340_s_at),3.246
same,Fold change EPB41L4A (228256_s_at),3.298
same,Fold change EPHA4 (229374_at),3.101
same,Fold change EPN3 (223895_s_at),3.929
same,Fold change F3 (204363_at),3.192
same,Fold change F11R (222354_at),3.541
same,Fold change FA2H (219429_at),3.37
same,Fold change FABP7 (205029_s_at),3.263
same,Fold change FABP7 (205030_at),3.804
same,Fold change FAM63A (221856_s_at),3.1
same,Fold change FAM72A /// FAM72B /// GCUD2 (225834_at),3.211
same,Fold change FAM83B (1563900_at),3.497
same,Fold change FAM83D (225687_at),3.895
same,Fold change FAM83H (226129_at),3.739
same,Fold change FAM84B (225864_at),3.566
same,Fold change FAM169A (235048_at),3.759
same,Fold change FBXO3 (218432_at),3.446
same,Fold change FCHSD1 (226698_at),3.141
same,Fold change FERMT1 (218796_at),3.784
same,Fold change FGFBP1 (205014_at),3.406
same,Fold change FIGN (239710_at),3.472
same,Fold change FLNB (208614_s_at),3.765
same,Fold change FLVCR2 (219316_s_at),3.532
same,Fold change FLVCR2 (222866_s_at),3.373
same,Fold change FMO5 (205776_at),3.223
same,Fold change FOXE1 (206912_at),3.121
same,Fold change FXYD3 (202489_s_at),3.827
same,Fold change GAB1 (229114_at),3.301
same,Fold change GFOD1 (219821_s_at),3.679
same,Fold change GGT6 (236225_at),3.426
same,Fold change GJB6 (231771_at),3.289
same,Fold change GM2A (35820_at),3.763
same,Fold change GM2A (212737_at),3.6714
same,Fold change GM2A (235678_at),3.427
same,Fold change GPR37 (209631_s_at),3.265
same,Fold change GPR126 (213094_at),3.256
same,Fold change GPT2 (224839_s_at),3.555
same,Fold change GRHL1 (222830_at),3.044
same,Fold change GSTA4 (235405_at),3.3
same,Fold change H19 (224646_x_at),3.532

# Reference: patent publication US20120034613A1, “Apparatus and Method for Testing Relationships Between Gene Expression and Physical Appearance of Skin” (NSE Products, Inc., priority 2010, published 2012)
